Biological target: T1, LXRβ (Homo sapiens, UniProt P55055)
T1 construct: Co-transfection expression plasmids, comprising full-length LXRα (pCMX-h LXRα[…] or LXRβ (pCMX-hLXRβ)); expressed in transfected cells; host or cells: CV-1 African Green Monkey Kidney Cells
T1 sequence (P55055 1-460): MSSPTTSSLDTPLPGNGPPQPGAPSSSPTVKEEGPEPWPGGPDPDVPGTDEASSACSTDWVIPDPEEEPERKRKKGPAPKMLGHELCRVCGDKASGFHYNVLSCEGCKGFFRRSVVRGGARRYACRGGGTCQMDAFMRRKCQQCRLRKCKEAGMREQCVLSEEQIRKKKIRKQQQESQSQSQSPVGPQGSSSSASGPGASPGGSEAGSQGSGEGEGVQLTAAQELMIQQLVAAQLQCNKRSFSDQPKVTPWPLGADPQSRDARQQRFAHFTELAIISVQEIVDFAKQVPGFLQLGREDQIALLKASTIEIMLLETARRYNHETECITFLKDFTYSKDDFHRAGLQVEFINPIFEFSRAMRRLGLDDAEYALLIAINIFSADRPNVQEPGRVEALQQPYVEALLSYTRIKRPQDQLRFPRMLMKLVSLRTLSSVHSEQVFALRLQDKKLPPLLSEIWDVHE
T1 sequence (P19793 1-462 partner): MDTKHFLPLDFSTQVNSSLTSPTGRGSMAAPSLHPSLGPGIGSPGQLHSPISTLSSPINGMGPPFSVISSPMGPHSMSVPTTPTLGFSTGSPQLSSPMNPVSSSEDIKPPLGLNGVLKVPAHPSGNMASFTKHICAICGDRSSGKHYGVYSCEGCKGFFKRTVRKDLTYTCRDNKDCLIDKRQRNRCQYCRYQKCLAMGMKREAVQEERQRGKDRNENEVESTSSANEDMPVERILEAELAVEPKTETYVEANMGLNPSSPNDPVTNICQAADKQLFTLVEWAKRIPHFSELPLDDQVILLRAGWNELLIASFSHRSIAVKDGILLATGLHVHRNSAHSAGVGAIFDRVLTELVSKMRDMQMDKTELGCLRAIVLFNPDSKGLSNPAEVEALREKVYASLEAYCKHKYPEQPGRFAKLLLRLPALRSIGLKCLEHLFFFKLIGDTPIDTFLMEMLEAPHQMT
Experiment: Co-transfection assay (LXRE luciferase reporter), LXRβ
Format: cell-based
Design: % Efficacy: concentration or dose not given beside the values
Conditions: for EC50: CV-1 cells transfected with pCMX-hLXRβ and LXREx1-Tk-Luciferase, 20 hours incubation; for Emax: read-out: % Efficacy
Outline: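 Luciferase signal from an LXREx1-Tk reporter was measured after transfected CV-1 cells (full-length hLXRβ, endogenous RXR) were treated with compounds for 20 h at 37 °C, ≤0.5% DMSO. EC50 came from four-parameter fits of 11-point ½-log curves; % efficacy versus a reference agonist maximum.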

[1] = LXRβ co-transfection, relative to high control 1-(2,4-difluorobenzyl)-2-oxo-6-(4-phenoxyphenyl)-4-(trifluoromethyl)-1,2-dihydropyridine-3-carbonitrile

Structure (SMILES)	EC50 [nM]	Emax [1] [%]	% Efficacy [1] [%]
Cc1nc(-c2cc(-c3cccc(C4(C(N)=O)CC4)c3)ccc2-n2cc(C(F)(F)F)nc2C)c(-c2ccc(OC(F)F)c(F)c2)o1 [Example 438, 1-(3′-(5-(4-(difluoromethoxy)-3-fluorophenyl)-2-methyloxazol-4-yl)-4′-(2-methyl-4-(trifluoromethyl)-1H-imidazol-1-yl)biphenyl-3-yl)cyclopropanecarboxamide]	1380	65	
Cc1nc(C(F)(F)F)cn1-c1ccc(-c2cccc(S(=O)(=O)C(C)C)c2)cc1-n1nncc1-c1ccc(OC(F)(F)F)cc1 [Example 98, 1-{3′-[(1-methylethyl)sulfonyl]-4-[2-methyl-4-(trifluoromethyl)-1H-imidazol-1-yl]biphenyl-3-yl}-5-{4-[(trifluoromethyl)oxy]phenyl}-1H-1,2,3-triazole]	1030	91	
CCS(=O)(=O)c1cccc(-c2ccc(-n3cc(C(F)F)nc3C)c(-n3nncc3C(C)c3ccc(Cl)cc3)c2)c1 (centres unmarked) [Example 131, 5-[1-(4-chlorophenyl)ethyl]-1-{4-[4-(difluoromethyl)-2-methyl-1H-imidazol-1-yl]-3′-(ethylsulfonyl)biphenyl-3-yl}-1H-1,2,3-triazole]	821	77	
Cc1nc(-c2cc(-c3cccc(S(C)(=O)=O)c3)ccc2-n2cc(C(C)O)nc2C)c(-c2ccc3c(c2)OC(F)(F)O3)o1 (single isomer, unassigned) [Example 372, 1-(1-(3-(5-(2,2-difluorobenzo[d][1,3]dioxol-5-yl)-2-methyloxazol-4-yl)-3′-(methylsulfonyl)-[1,1′-biphenyl]-4-yl)-2-methyl-1H-imidazol-4-yl) ethanol]	838		33
CCC(F)(F)c1cn(-c2ccc(-c3cccc(S(=O)(=O)N(C)C)c3)cc2-n2nncc2-c2ccc(OC(F)(F)F)cc2)c(C)n1 [Example 182, 4′-[4-(1,1-difluoropropyl)-2-methyl-1H-imidazol-1-yl]-N,N-dimethyl-3′-(5-{4-[(trifluoromethyl)oxy]phenyl}-1H-1,2,3-triazol-1-yl)biphenyl-3-sulfonamide]	494	78	
COCc1c(F)cc(-c2ccc(-n3cc(C(C)(F)F)nc3C)c(-n3nncc3-c3ccc(OC(F)(F)F)cc3)c2)cc1S(C)(=O)=O [Example 179, 1-{4-[4-(1,1-difluoroethyl)-2-methyl-1H-imidazol-1-yl]-3′-fluoro-4′-[(methyloxy)methyl]-5′-(methylsulfonyl)biphenyl-3-yl}-5-{4-[(trifluoromethyl)oxy]phenyl}-1H-1,2,3-triazole]	620	105	
Cc1nc(C(F)(F)F)cn1-c1ccc(-c2cccc(S(C)(=O)=O)c2)cc1-c1oc(CCO)nc1-c1ccc(OC(F)(F)F)cc1 [Example 611, 2-(5-(4-(2-methyl-4-(trifluoromethyl)-1H-imidazol-1-yl)-3′-(methylsulfonyl)-[1,1′-biphenyl]-3-yl)-4-(4-(trifluoromethoxy)phenyl)oxazol-2-yl)ethanol]	554	62	
CCC(F)(F)c1cn(-c2ccc(-c3cccc(S(C)(=O)=O)c3)cc2-c2ocnc2-c2ccc(OC(F)(F)F)cc2)c(C)n1 [Example 364, 5-{4-[4-(1,1-difluoropropyl)-2-methyl-1H-imidazol-1-yl]-3′-(methylsulfonyl)biphenyl-3-yl}-4-{4-[(trifluoromethyl)oxy]phenyl}-1,3-oxazole]	410	55	

Stronger by EC50, values ahead:

EC50 [nM]	Emax [1] [%]	% Efficacy [1] [%]	Structure (SMILES)
225	88		Cc1nc(-c2cc(-c3cccc(S(=O)(=O)C(F)F)c3)ccc2-n2cc(C(F)(F)F)nc2C)c(-c2ccc(OC(F)F)c(F)c2)o1 [Example 430, 5-(4-(difluoromethoxy)-3-fluorophenyl)-4-(3′-(difluoromethylsulfonyl)-4-(2-methyl-4-(trifluoromethyl)-1H-imidazol-1-yl)biphenyl-3-yl)-2-methyloxazole]
234	75		Cc1nc(-c2cc(-c3cccc(S(C)(=O)=O)c3)ccc2-n2cc(C(F)(F)F)nc2C)c(-c2ccc3c(c2)OCCO3)o1 [Example 443, 5-(2,3-dihydrobenzo[b][1,4]dioxin-6-yl)-2-methyl-4-(4-(2-methyl-4-(trifluoromethyl)-1H-imidazol-1-yl)-3′-(methylsulfonyl)biphenyl-3-yl)oxazole]
34	64		Cc1ccc(-c2oc(C)nc2-c2cc(-c3cc(F)c(CO)c(S(C)(=O)=O)c3)ccc2-n2cc(C(F)(F)F)nc2C)cc1 [Example 492, (3-fluoro-4′-(2-methyl-4-(trifluoromethyl)-1H-imidazol-1-yl)-3′-(2-methyl-5-p-tolyloxazol-4-yl)-5-(methylsulfonyl)biphenyl-4-yl)methanol]
289	86		Cc1nc(C(F)(F)F)cn1-c1ccc(-c2cccc(S(C)(=O)=O)c2)cc1-n1nncc1-c1ccc(Cl)c(C(F)(F)F)c1 [Example 64, 5-[4-chloro-3-(trifluoromethyl)phenyl]-1-{3′-(methylsulfonyl)-4-[2-methyl-4-(trifluoromethyl)-1H-imidazol-1-yl]biphenyl-3-yl}-1H-1,2,3-triazole]
20	101		CCc1nc(-c2ccc(OC(F)(F)F)cc2)c(-c2cc(-c3cc(F)c(CO)c(S(C)(=O)=O)c3)ccc2-n2cc(C(F)(F)F)nc2C)o1 [Example 600, {3′-(2-ethyl-4-{4-[(trifluoromethyl)oxy]phenyl}-1,3-oxazol-5-yl)-3-fluoro-5-(methylsulfonyl)-4′-[2-methyl-4-(trifluoromethyl)-1H-imidazol-1-yl]biphenyl-4-yl}methanol]
166	68		Cc1nc(C(F)F)cn1-c1ccc(-c2cc(F)c(CO)c(S(C)(=O)=O)c2)cc1-n1nncc1C(C)c1ccc(Cl)cc1 (centres unmarked) [Example 134, [3′-{5-[1-(4-chlorophenyl)ethyl]-1H-1,2,3-triazol-1-yl}-4′-[4-(difluoromethyl)-2-methyl-1H-imidazol-1-yl]-3-fluoro-5-(methylsulfonyl)biphenyl-4-yl]methanol]
214	148		Cc1nc(Cl)c(Cl)n1-c1ccc(-c2cccc(S(C)(=O)=O)c2)cc1-n1nncc1-c1ccc(OC(F)(F)F)cc1 [Example 151, 1-[4-(4,5-dichloro-2-methyl-1H-imidazol-1-yl)-3′-(methylsulfonyl)biphenyl-3-yl]-5-{4-[(trifluoromethyl)oxy]phenyl}-1H-1,2,3-triazole]
240	45		COc1ncc(-c2oc(C)nc2-c2cc(-c3cc(F)c(CO)c(S(C)(=O)=O)c3)ccc2-n2cc(Cl)nc2C)cc1F [Example 465, (4′-(4-chloro-2-methyl-1H-imidazol-1-yl)-3-fluoro-3′-(5-(5-fluoro-6-methoxypyridin-3-yl)-2-methyloxazol-4-yl)-5-(methylsulfonyl)biphenyl-4-yl)methanol]
175	78		Cc1nc(-c2cc(-c3cccc(S(C)(=O)=O)c3)ccc2-n2cc(C(F)(F)F)nc2C)c(-c2cc(F)c(OC(F)F)c(F)c2)o1 [Example 367, (4-(difluoromethoxy)-3,5-difluorophenyl)-2-methyl-4-(4-(2-methyl-4-(trifluoromethyl)-1H-imidazol-1-yl)-3′-(methylsulfonyl)-[, 1′-biphenyl]-3-yl)oxazole]
280	82		Cc1nc(C(F)(F)F)cn1-c1ccc(-c2cccc(S(C)(=O)=O)c2)cc1-c1nc(CC(C)O)oc1-c1ccc(OC(F)(F)F)cc1 (centres unmarked) [Example 536, 1-(4-(4-(2-methyl-4-(trifluoromethyl)-1H-imidazol-1-yl)-3′-(methylsulfonyl)-[1,1′-biphenyl]-3-yl)-5-(4-(trifluoromethoxy)phenyl)oxazol-2-yl)propan-2-ol]
233	110		CS(=O)(=O)c1cc(-c2ccc(-n3cc(C(F)(F)F)nc3Cl)c(-n3nncc3-c3ccc(Cl)cc3Cl)c2)cc(F)c1CO [Example 145, {4′-[2-chloro-4-(trifluoromethyl)-1H-imidazol-1-yl]-3′-[5-(2,4-dichlorophenyl)-1H-1,2,3-triazol-1-yl]-3-fluoro-5-(methylsulfonyl)biphenyl-4-yl}methanol]

From US9834542B2, “LXR modulators” (BRISTOL-MYERS SQUIBB COMPANY, priority 2013, dated 2017)
